Data set [1] relates to hypermotility of mice induced by apomorphine. Kind of data set: Anti-apomorphine Action (mice): suppression of spontaneous motility. The class given is in vivo, mice (male dd-strain). Particulars: Mus musculus, po, 60 min before 0.5 mg/kg apomorphine hydrochloride; 50% suppression of spontaneous motility. An excerpt: (§1) Dopamine antagonism was observed by the antagonism to
(1) hypermotility of mice, and
(§2) induced by the administration of apomorphine to the animals which drug acts on dopamine. The response of (1) is considered to be due to the action of dopamine on the mesolimbic system whereas the response of (2) is regarded mainly as the action of dopamine on the extrapyramidal system. As a consequence, a drug having high selectivity to the antagonism to the response of (1) is deemed to be more useful with less extrapyramidal side effects.
Groups of 5 male dd-strain mice were used. Test compounds were orally administered and 60 minutes thereafter, 0.5 mg/kg of apomorphine hydrochloride was intracutaneously administered. Immediately thereafter, spontaneous motility of the mice was measured with the aid of Animex (manufactured by Columbus Company, U.S.A.) for 20 minutes. The procedure was repeated three times with respective groups. The dose of test compounds required for 50% suppression of spontaneous motility of control group was graphically intraporated and determined as ED50 value.

For data set [2] the following is noted: in vivo, po; cited from earlier work.
For data set [3], the system named is rats administered with methamphetamine. Kind of data set: Methamphetamine Potentiation Action (lethality increasing effect). The data set is classed as in vivo, rats (male Wistar). Particulars: 8 rats/group, methamphetamine hydrochloride 5 mg/kg i.p. Here is the method: Activation effect was construed as lethality increasing effect of a test drug on rats which were administered with methamphetamine at a non-lethal dose every week. Accordingly, it is considered that the greater is the number of rats which died at a lower dose in an earlier week, the activation activity is the higher.
Groups of 8 male Wistar rats weighing above […] were used. Test compounds are intraperitoneally administered and 15 minutes thereafter, 5 mg/kg of methamphetamine hydrochloride was intraperitoneally administered. Number of dead rats within one week was counted. In the 2nd to 4th week, experiment was likewise repeated at one week intervals by the administration of test compounds and methamphetamine hydrochloride.

In data set [4] the test system is stereotyped behavior of rats induced by apomorphine. As to the kind of experiment: Anti-apomorphine Action (rats): suppression of gnawing (stereotyped) behavior. Particulars: Rattus norvegicus, po, 60 min before 1.25 mg/kg i.v. apomorphine hydrochloride; 50% suppression of gnawing behavior; probit. The class given is in vivo, rats (female Wistar).
From the text: as §1
(2) stereotyped behavior of rats
as §2
Groups of 7 female Wistar rats were used. Test compounds were orally administered, 60 minutes thereafter, apomorphine hydrochloride was intravenously administered at a dosage of 1.25 mg/kg. After 5 minutes and 20 minutes, respectively, whether gnawing behavior (stereotyped behavior) appears or not during the period of 5 minutes was observed. The dose of test compounds required for 50% suppression of the appearance was evaluated as ED50 value by probit method.

For data set [5] the following is noted: in vivo; cited from earlier work.
The next data set relates to extrapyramidal system. Particulars: cited from earlier work.

Where only a bound is given, the exact number is not on record here.

We go through 1 compound from US4617314A, “Benzofuran- and benzopyran-carboxamide derivatives” (priority 1983, dated 1986).

In general, ED50 refers to the midpoint of the dose-response relation.

For `CCN1CCCC1CNC(=O)c1cc(S(N)(=O)=O)ccc1OC` (stereo not drawn) [Sulpyride, reference compound], the ED50 in data set [1] is 330 mg/kg; in data set [4], more than 500 mg/kg. Moreover, in data set [2], the “uptake rate in living organisms” value was “low uptake rate”. Further, the “Methamphetamine Potentiation Action, Number of Dead Animal, Total Number” value in data set [3] (1st Week, 20 mg/kg) stood at 0; in data set [3] (1st Week, 40 mg/kg), 0; in data set [3] (1st Week, 80 mg/kg), 2; in data set [3] (2nd Week, 20 mg/kg), 0; in data set [3] (2nd Week, 40 mg/kg) it was 0; in data set [3] (2nd Week, 80 mg/kg) it was 3. In addition, the “Methamphetamine Potentiation Action, Number of Dead Animal, Total Number” value in data set [3] (3rd Week, 20 mg/kg) came to 0; in data set [3] (3rd Week, 40 mg/kg) it was 1; in data set [3] (3rd Week, 80 mg/kg), 3; in data set [3] (4th Week, 20 mg/kg), 0; in data set [3] (4th Week, 40 mg/kg), 1; in data set [3] (4th Week, 80 mg/kg), 3. The “crossing of blood-brain barrier” value in data set [5] was “difficult to cross blood-brain barrier”. Moreover, in the data set with extrapyramidal system (as opposed to butyrophenone-series (haloperidol) or phenothiazine-series (chlorpromazine) compounds), the cataleptogenic activity result is “weak”. Moreover, in the data set with extrapyramidal system (in vivo), the “side effects on the extrapyramidal system” value is listed as “less side effects”.
